From patent publication US12077503B2, “Substituted cyclic amides and their use as herbicides” (FMC CORPORATION, priority 2015, dated 2024) come the findings set out here.

What all share (type): in vivo
For test [1], the system named is Galium (catchweed bedstraw, Galium aparine). Put plainly: Test A postemergence. The following applies: Galium, post-emergence, 240 h, 125 g ai/ha, postemergence, visual injury rating after approximately 10 d; read-out: Galium plant response rating (0 to 100 scale, 0 no effect, 100 complete control). The procedure, abridged: (§1)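 Seeded soil received test chemicals as a preemergence directed spray, and seedlings at one to two leaves, 2–10 cm tall, received them postemergence, in a non-phytotoxic, surfactant-containing solvent mixture. Pots were held in a greenhouse for approximately 10 d, then rated for injury from 0, no effect, to 100, complete control.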

Test [2] has as its system ragweed (common ragweed, Ambrosia elatior). The test is described as follows: Test A postemergence. The note with it: Ambrosia artemisiifolia, post-emergence, 240 h, 125 g ai/ha, postemergence, visual injury rating after approximately 10 d; read-out: Ragweed plant response rating (0 to 100 scale, 0 no effect, 100 complete control). An outline of the steps:
as §1

Test [3] deals with giant foxtail (Setaria faberii). Put plainly: Test A postemergence. The note with it: Setaria faberi, post-emergence, 240 h, 125 g ai/ha, postemergence, visual injury rating after approximately 10 d; read-out: Foxtail, Giant plant response rating (0 to 100 scale, 0 no effect, 100 complete control). An outline of the steps: as §1
A further test has as its system Kochia (Kochia scoparia). The test is described as follows: Test A postemergence. The note with it: Bassia scoparia, post-emergence, 240 h, 125 g ai/ha, postemergence, visual injury rating after approximately 10 d; read-out: Kochia plant response rating (0 to 100 scale, 0 no effect, 100 complete control). The procedure, abridged: as §1
Test [4] relates to ryegrass, Italian (Italian ryegrass, Lolium multiflorum). The test is described as follows: Test A postemergence. The following applies: Lolium multiflorum, post-emergence, 240 h, 125 g ai/ha, postemergence, visual injury rating after approximately 10 d; read-out: Ryegrass, Italian plant response rating (0 to 100 scale, 0 no effect, 100 complete control). The procedure, abridged: as §1

Test [5] relates to barnyardgrass (Echinochloa crus-galli). The test is described as follows: Test A postemergence. The following applies: Echinochloa crus-galli, post-emergence, 240 h, 125 g ai/ha, postemergence, visual injury rating after approximately 10 d; read-out: Barnyardgrass plant response rating (0 to 100 scale, 0 no effect, 100 complete control). An outline of the steps: as §1
Test [6] has as its system wheat (Triticum aestivum). The test is described as follows: Test A postemergence. The following applies: Triticum aestivum, post-emergence, 240 h, 125 g ai/ha, postemergence, visual injury rating after approximately 10 d; read-out: Wheat plant response rating (0 to 100 scale, 0 no effect, 100 complete control). The procedure, abridged: as §1
The next test concerns corn (Zea mays). The test is described as follows: Test A postemergence. The note with it: Zea mays, post-emergence, 240 h, 125 g ai/ha, postemergence, visual injury rating after approximately 10 d; read-out: Corn plant response rating (0 to 100 scale, 0 no effect, 100 complete control). The procedure, abridged: as §1
The test system of test [7] is blackgrass (Alopecurus myosuroides). Put plainly: Test A postemergence. The note with it: Alopecurus myosuroides, post-emergence, 240 h, 125 g ai/ha, postemergence, visual injury rating after approximately 10 d; read-out: Blackgrass plant response rating (0 to 100 scale, 0 no effect, 100 complete control). The procedure, abridged:
as §1

In test [8] the test system is pigweed (Amaranthus retroflexus). Put plainly: Test A postemergence. The following applies: Amaranthus retroflexus, post-emergence, 240 h, 125 g ai/ha, postemergence, visual injury rating after approximately 10 d; read-out: Pigweed plant response rating (0 to 100 scale, 0 no effect, 100 complete control). The procedure, abridged: as §1
Test [9] has the same test system. The test is described as follows: Test A preemergence. The note with it: Amaranthus retroflexus, pre-emergence, 240 h; for pest or weed control at 125 g/ha: 125 g ai/ha, preemergence, 0 to 100 scale where 0 is no effect and 100 is complete control, read-out: Pigweed plant response rating; for pest or weed control at 500 g/ha: 500 g ai/ha, Preemergence, visual injury vs untreated controls after approximately 10 d, read-out: Pigweed plant response rating (0 to 100 scale where 0 is no effect and 100 is complete control).

Test [10] deals with sedge, umbrella (small-flower umbrella sedge, Cyperus difformis). Put plainly: Test B flooded paddy test. The following applies: Cyperus difformis, Flood, 250 g ai/ha; scale of 0 to 100 where 0 is no effect and 100 is complete control; read-out: Sedge, Umbrella plant response rating. The procedure, abridged:
(§2)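 Greenhouse paddy pots with 2-leaf stage plants received compound by direct addition to floodwater 3 cm deep, kept at that level. Scored visually at 13–15 d versus controls (0 no effect; 100 complete control).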

For the next test, the system named is rice (Oryra sativa). Put plainly: Test B flooded paddy test. The note with it: Oryza sativa, Flood, 250 g ai/ha; scale of 0 to 100 where 0 is no effect and 100 is complete control; read-out: Rice plant response rating. An outline of the steps:
as §2

The test system of test [11] is barnyardgrass (Echinochloa crus-galli). Put plainly: Test B flooded paddy test. The following applies: Echinochloa crus-galli, Flood, 250 g ai/ha; scale of 0 to 100 where 0 is no effect and 100 is complete control; read-out: Barnyardgrass plant response rating. The procedure, abridged: as §2
Test [12] relates to ducksalad (Heteranthera limosa). The test is described as follows: Test B flooded paddy test. The following applies: Heteranthera limosa, Flood, 250 g ai/ha; scale of 0 to 100 where 0 is no effect and 100 is complete control; read-out: Ducksalad plant response rating. The procedure, abridged: as §2

With `CN1C[C@H](c2cccc(F)c2)[C@@H](C(=O)Nc2ccccc2F)C1=O` [Compound 822], the pest or weed control at 125 g/ha was 20% in test [1]; 0% in [2]; 90% in [3]; 0% in the test on Kochia (Kochia scoparia); 20% in [4]; 90% in test [5]. For the same compound, the pest or weed control at 125 g/ha in [7], in [8] and in test [9] was 0% in each case. In addition, the plant injury at 125 g/ha in [6] turned out to be 0%; in the test on corn (Zea mays), 20%. The pest or weed control at 500 g/ha in test [9] came out at 50%. Also, the pest or weed control at 250 g/ha in test [10] is 0%; with rice (Oryra sativa), 0%; in [11], 75%; in [12], 85%.

Consider `COc1c(F)ccc([C@H]2CN(C)C(=O)[C@@H]2C(=O)Nc2ccc(F)cc2F)c1Cl` [Compound 894], for which the pest or weed control at 125 g/ha worked out at 40% in [1]; 0% in test [2]; 90% in [3]; 50% in the test with Kochia (Kochia scoparia); 50% in test [4]; 90% in test [5]. Besides, the values for the pest or weed control at 125 g/ha in test [7], in test [8] and in test [9] were 0%, 0% and 20%, respectively. The plant injury at 125 g/ha was 20% in test [6] and 60% in the test with corn (Zea mays). Besides, in [9], the pest or weed control at 500 g/ha was 50%. The pest or weed control at 250 g/ha in [10] stood at 0%; with rice (Oryra sativa) it was 0%; in [11], 70%; in [12], 100%.

Take `Cc1cc(C)cc([C@H]2CNC(=O)[C@@H]2C(=O)Nc2ccccc2C(F)(F)F)c1` [Compound 909]: the pest or weed control at 125 g/ha in test [1] turned out to be 0%; in [2], 0%; in test [3], 40%; with Kochia (Kochia scoparia), 0%; in test [4], 0%; in [5] it was 50%. Also, the pest or weed control at 125 g/ha in test [7], in test [8] and in [9] was 0% in each case. Also, the plant injury at 125 g/ha (in test [6]; with corn (Zea mays)) was 0% in each case. Also, the pest or weed control at 500 g/ha in test [9] came to 0%. Moreover, the pest or weed control at 250 g/ha in [10] amounted to 0%; in the test on rice (Oryra sativa), 0%; in test [11], 40%; in test [12], 70%.

Turning to `O=C1NCC(c2cccc(I)c2)C1C(=O)Nc1ccccc1F` (stereo not shown) [Compound 845], the pest or weed control at 125 g/ha in [1] amounted to 20%; in [2], 0%; in [3], 90%; in the test on Kochia (Kochia scoparia), 0%; in [4], 30%; in test [5] it was 80%. Moreover, the pest or weed control at 125 g/ha was 40% in test [7], 0% in test [8] and 0% in test [9]. Further, the plant injury at 125 g/ha amounted to 0% in [6] and 30% in the test with corn (Zea mays). The pest or weed control at 500 g/ha in test [9] stood at 0%. The pest or weed control at 250 g/ha worked out at 0% in test [10], 20% with rice (Oryra sativa), 30% in test [11] and 0% in [12].
